Data: PubChem BioAssay (NCI)
Where “and” joins values, the source holds several entries; their conditions need not be identical. Identical values can stand only once.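 Exposure lasted 48 hours, with cells grown in 96-well plates and compounds tested at five concentrations. GI50 = concentration required for 50% inhibition of growth. TGI marks complete inhibition of growth.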

Tests used:
Assay in all cases: NCI-60 cell line screen, 48 h
SK-MEL-2 melanoma = system: SK-MEL-2 melanoma
HT29 colon = system: HT29 colon
A549 NSCLC = system: A549 NSCLC
K-562 leukemia = system: K-562 leukemia
UACC-62 melanoma = system: UACC-62 melanoma
T-47D breast = system: T-47D breast
HS 578T breast = system: HS 578T breast
SK-MEL-28 melanoma = system: SK-MEL-28 melanoma
HL-60(TB) leukemia = system: HL-60(TB) leukemia
SNB-75 CNS = system: SNB-75 CNS

Row | Structure (SMILES) | TGI (SK-MEL-2 melanoma) [µM] | TGI (HT29 colon) [µM] | TGI (A549 NSCLC) [µM] | TGI (K-562 leukemia) [µM] | TGI (UACC-62 melanoma) | TGI (T-47D breast) [µM] | TGI (HS 578T breast) [µM] | TGI (SK-MEL-28 melanoma) [µM] | TGI (HL-60(TB) leukemia) [µM] | TGI (SNB-75 CNS) [µM] | GI50 (SK-MEL-28 melanoma) | GI50 (K-562 leukemia) [µM] | GI50 (UACC-62 melanoma) [µM] | GI50 (HS 578T breast) [µM]
1 | O=C(O)C1Cc2ccccc2OC1=O (centres undefined) | > 100 | > 100 | > 100 | > 100 | > 100 µM | > 100 | > 100 | > 100 | – | – | – | – | – | –
2 | CCOC(=O)/C(=C\NC#N)c1nc2ccccc2[nH]1 | – | > 100 | > 100 | – | > 100 µM | – | – | > 100 | > 100 | > 100 | – | – | – | –
3 | C[n+]1c(-c2ccc(/C=N/Nc3n[nH]c(=S)n3N/N=C/c3ccc(-c4cn5ccccc5[n+]4C)cc3)cc2)cn2ccccc21 | – | > 100 | > 100 | > 100 | – | > 100 | > 100 | > 100 | > 100 | > 100 | – | – | – | –
4 | CC[S+](C)c1ccc(-c2c3nc(c(-c4ccc([S+](C)CC)cc4)c4ccc([nH]4)c(-c4ccc([S+](C)CC)cc4)c4nc(c(-c5ccc([S+](C)CC)cc5)c5ccc2[nH]5)C=C4)C=C3)cc1 (centres undefined) | 77.5 | > 100 | > 100 | > 100 | 54.9 µM | – | – | > 100 | 49.9 | > 100 | – | – | – | –
5 | CCOC(=O)C1CCCC1S(=O)(=O)c1ccc(C)cc1 (centres undefined) | – | > 100 | > 100 | > 100 | > 100 µM | > 100 | > 100 | > 100 | > 100 | > 100 | – | – | – | –
6 | CCc1c(-c2coc(CC/C(C)=C/c3ccccc3)n2)oc(OC)c(C)c1=O | > 100 | > 31.6 | > 100 | > 100 | > 53 µM | – | – | > 100 | 97.9 | > 100 | – | – | – | –
7 | CN(c1ccccc1Cl)S(=O)(=O)c1ccccc1 | > 100 | > 100 | > 100 | > 100 | > 100 µM | – | > 100 | > 100 | > 100 | > 100 | – | – | – | –
8 | C=CC[C@@]1(C#N)C[C@H](C[C@]2(C#N)C[C@H](CCl)OC(C)(C)O2)OC(C)(C)O1 | > 100 | > 100 | > 100 | > 100 | > 100 µM | – | – | > 100 | > 100 | > 100 | – | – | – | –
9 | C[N+](C)(N)Cc1csc(-c2ccc(Cl)cc2)n1 | > 100 | > 100 | > 100 | > 100 | > 100 µM | > 100 | > 100 | > 100 | – | > 100 | – | – | – | –
10 | CC[C@@]1(O)C(=O)OCc2c1cc1n(c2=O)Cc2c-1nc1ccccc1c2/C=N\NC(=O)C(N)=O | > 77.8 | > 100 | > 100 | > 100 | 3.54 µM | – | > 100 | > 100 | > 100 | > 26 | – | – | – | –
11 | COc1ccc(-c2c(C(C)=O)c(-c3ccccc3)n(C3OC(COC(C)=O)C(OC(C)=O)C(OC(C)=O)C3OC(C)=O)c(=S)c2C#N)cc1O (centres undefined) | – | > 100 | > 100 | > 100 | 53.6 µM and > 100 µM | – | > 100 | > 100 | > 100 | – | 27.2 µM and 65.9 µM | – | – | –
12 | CCOC(=S)SC/C(=N\OC(C)(C)OC)c1ccccc1 | 43.9 | 58.3 | > 100 | 56 | > 100 µM | 63.1 | > 100 | > 100 | 54.7 | – | – | – | – | –
13 | COc1ccc(CCN2CCOCC2)cc1 | > 100 | > 100 | > 100 | > 100 | > 100 µM | > 100 | > 100 | > 100 | > 100 | – | – | – | – | –
14 | Cc1cc(C)c(N)c(C)c1N | > 100 | – | > 100 | > 100 | > 100 µM | – | – | > 100 | > 100 | – | – | – | – | –
15 | Cc1noc(C)c1N=Nc1ccc2nonc2c1N | > 100 | > 100 | > 100 | – | > 100 µM | > 100 | – | > 100 | > 100 | 42.2 | – | – | – | –
16 | CC1=NN(C(=O)c2ccccc2)C(=O)C1N=Nc1ccccc1C(=O)O (centres undefined) | > 100 | > 100 | > 100 | > 29.4 | 22.9 µM | – | – | > 100 | > 33.2 | > 20.7 | – | – | – | –
17 | Cn1nc2ccc3nccc(NCCNCCCl)c3c2n1 | > 100 | > 100 | > 100 | > 100 | > 100 µM | – | – | > 100 | > 100 | > 100 | – | – | – | –
18 | N/C(=N\N=C/c1cc(Cl)cc(Cl)c1O)NO | 23.1 | > 62.7 | 36.5 | > 46.3 | 6.73 µM | – | – | 44.7 | 0.694 | 9.58 | – | – | – | –

Row | Structure (SMILES) | TGI (SK-MEL-2 melanoma) [µM] | TGI (HT29 colon) [µM] | TGI (A549 NSCLC) [µM] | TGI (K-562 leukemia) [µM] | TGI (UACC-62 melanoma) | TGI (T-47D breast) [µM] | TGI (HS 578T breast) [µM] | TGI (SK-MEL-28 melanoma) [µM] | TGI (HL-60(TB) leukemia) [µM] | TGI (SNB-75 CNS) [µM] | GI50 (SK-MEL-28 melanoma) | GI50 (K-562 leukemia) [µM] | GI50 (UACC-62 melanoma) [µM] | GI50 (HS 578T breast) [µM]
19 | CC(C)(CO)NC(=O)c1cccc(C(=O)NC(C)(C)CO)c1Br | > 100 | > 100 | > 100 | > 100 | > 100 µM | > 100 | – | > 100 | > 100 | > 100 | – | – | – | –
20 | COc1cc(C2c3cc4c(cc3[C@@H](Nc3ccc(N5CCOCC5)cc3)C3COC(=O)[C@H]23)OCO4)cc(OC)c1O (some centres undefined) | 5.4 | 4.58 | 1.62 | 5.01 | 3.91 µM | – | – | 26.8 | 0.376 | 78.2 | – | – | – | –
21 | Cc1cc(O)c(/C=N/C(=O)NN)c(=O)o1 | > 100 | – | > 100 | – | > 100 µM | – | > 100 | > 100 | – | > 100 | – | – | – | –
22 | CCOC(=O)C1CCn2c(nc3c(=O)n(C)c(=O)n(C)c32)S1 (centres undefined) | > 100 | > 100 | > 100 | > 100 | > 100 µM | – | – | – | > 100 | > 100 | – | – | – | –
23 | CCOC(=O)CCc1c(C)c2c(O)cc(O)cc2oc1=O | > 100 | > 100 | > 100 | > 100 | > 100 µM | – | – | > 100 | > 100 | > 100 | – | – | – | –
24 | CC1(C)CC(=O)C2=C(C1)N(c1ccccc1)C1(O)C=CC(=O)C3=C(O)c4ccccc4C(=O)C321 (centres undefined) | 60.9 | 54 | > 100 | > 100 | 63.5 µM | > 100 | – | 39.3 | > 100 | 48.6 | – | – | – | –
25 | CN(C)S(=O)(=O)c1cccc(-c2nc3sc4c(c3c(=O)[nH]2)CCCC4)c1 | – | – | – | > 100 | > 100 µM | – | > 100 | > 100 | – | – | > 100 µM | > 100 | > 100 | 2.98
26 | CCCCCCCCCCCCCCCCCCNC(=S)/N=C/c1c(O)cc(C)oc1=O | 52.1 | 76.8 | 69.5 | – | > 100 µM | > 100 | – | > 100 | > 100 | 49.3 | – | – | – | –
27 | CCOC(=O)CC(=Nc1cc(C)on1)N(CC)CC | > 100 | > 100 | > 100 | > 100 | > 100 µM | – | – | > 100 | – | > 100 | – | – | – | –
28 | O=C(NN1C(=O)C(Cl)C1c1ccc([N+](=O)[O-])cc1)c1ccccc1O (centres undefined) | > 100 | > 100 | > 100 | > 100 | > 100 µM | – | – | > 100 | > 100 | > 100 | – | – | – | –
29 | Cc1ccc(C(=O)NC(C)C)cc1N=NN(C)C | > 100 | > 100 | > 100 | – | > 100 µM | – | – | > 100 | – | – | – | – | – | –
30 | COc1ccc2c(c1)Cc1c-2[nH]c2cc3c(cc2c1=O)OCO3 | 21.8 | 19.9 | > 100 | > 100 | 22.8 µM | – | – | 53.8 | 29.2 | – | – | – | – | –
31 | CNC(=O)C(NC(=O)[C@H](CC(C)C)NC(=O)[C@@H](S)CCN1C(=O)N(C)C(C)(C)C1=O)C(C)(C)C (some centres undefined) | > 100 | > 100 | > 100 | > 100 | > 100 µM | > 100 | > 100 | > 100 | > 100 | – | – | – | – | –
32 | CN1CCN(c2ccc3nc(-c4ccc5nc(-c6ccc(N(C)CCCl)cc6)[nH]c5c4)[nH]c3c2)CC1 | 0.465 | 0.675 | 10.1 | 1.16 | 1.05 µM | – | 0.58 | 1.13 | > 100 | 0.897 | – | – | – | –
33 | COc1cc(C2c3cc4c(cc3OC(N3CCOCC3)C2C)OCO4)cc(OC)c1OC (centres undefined) | 28.2 | 7.51 | > 69.2 | > 54.3 | 56.5 µM | > 100 | 0.722 | > 100 | – | > 48.2 | – | – | – | –
34 | FC(F)(F)c1nc2cc(SSc3cc4nc(C(F)(F)F)[nH]c4cc3Cl)c(Cl)cc2[nH]1 | > 100 | > 100 | > 100 | > 100 | > 100 µM | – | > 100 | > 100 | > 100 | – | – | – | – | –
35 | N#CCCCCC12C3C(=O)N(c4ccccc4)C(=O)C3ON1O[C@@H]1C(=O)N(c3ccccc3)C(=O)[C@@H]12 (some centres undefined) | – | > 100 | > 100 | > 100 | > 100 µM | > 100 | > 100 | > 100 | > 100 | – | – | – | – | –
